According to ChEMBL document CHEMBL1155421, “Evaluation of a 4-aminopiperidine replacement in several series of CCR5 antagonists” (Bioorg Med Chem Lett, 2010):

Columns and labels:
[1] = molecular target: C-C chemokine receptor type 5 (Homo sapiens, UniProt P51681); assay: Displacement of […] from CCR5 receptor receptors expressed in CHO cells; assay type: cell-based
[2] = system: Human immunodeficiency virus 1; assay: Antiviral activity against HIV1 NLBal infected JC53BL cells assessed as inhibition of replication by luciferase reporter assay; assay type: functional, organism-based; conditions: Human immunodeficiency virus 1, NLBal

Sequence of C-C chemokine receptor type 5 (P51681 whole entry): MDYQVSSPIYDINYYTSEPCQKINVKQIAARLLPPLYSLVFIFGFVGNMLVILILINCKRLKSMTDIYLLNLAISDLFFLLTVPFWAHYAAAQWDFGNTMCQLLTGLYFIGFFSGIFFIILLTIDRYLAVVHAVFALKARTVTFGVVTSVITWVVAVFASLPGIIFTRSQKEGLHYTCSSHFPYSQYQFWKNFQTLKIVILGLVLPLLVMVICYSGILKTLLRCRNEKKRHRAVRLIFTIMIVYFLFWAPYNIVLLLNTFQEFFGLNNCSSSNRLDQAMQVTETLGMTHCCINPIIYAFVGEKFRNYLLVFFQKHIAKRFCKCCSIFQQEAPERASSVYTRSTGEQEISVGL

| Compound | IC50 [1] | IC50 [2] |
| --- | --- | --- |
| COC[C@@H](c1ccc(C(F)(F)F)cc1)N1CCN(C2C[C@@H]3CN(C(=O)c4c(C)ncnc4C)C[C@@H]3C2)C[C@@H]1C (some centres undefined) | > 500 nM | > 625 nM |
| COC[C@@H](c1ccc(C(F)(F)F)cc1)N1CCN(C2C[C@@H]3CN(C(=O)c4c(C)ccnc4C)C[C@@H]3C2)C[C@@H]1C (some centres undefined) | > 500 nM | > 625 nM |
| COC[C@@H](c1ccc(C(F)(F)F)cc1)N1CCN(C2C[C@@H]3CN(C(=O)c4c(C)cc(C#N)nc4C)C[C@@H]3C2)C[C@@H]1C (some centres undefined) | > 500 nM | > 625 nM |
| CCO[C@H]1Cc2cc(C(F)(F)F)ccc2[C@@H]1N1CCN(C2C[C@@H]3CN(C(=O)c4c(C)ncnc4C)C[C@@H]3C2)C[C@@H]1C (some centres undefined) | 92 nM | > 625 nM |
| CCO[C@H]1Cc2cc(C(F)(F)F)ccc2[C@@H]1N1CCN(C2C[C@@H]3CN(C(=O)c4c(C)ccnc4C)C[C@@H]3C2)C[C@@H]1C (some centres undefined) | 98 nM | 357 nM |
| CCCC[C@H]1CN(CC2CCOCC2)C(=O)OC12CCN(C1(C)C[C@H]3CN(C(=O)c4c(C)cc(C#N)nc4C)C[C@H]3C1)CC2 (some centres undefined) | 61 nM | 18 nM |

Molecules with a lower IC50 [1], results first:

| IC50 [1] | IC50 [2] | Compound |
| --- | --- | --- |
| 45 nM | 59 nM | CCO[C@H]1Cc2cc(C(F)(F)F)ccc2[C@@H]1N1CCN(C2C[C@@H]3CN(C(=O)c4c(C)cc(C#N)nc4C)C[C@@H]3C2)C[C@@H]1C (some centres undefined) |
| 44 nM | 19 nM | CCCC[C@H]1CN(C[C@H]2CC[C@H](OCC)CC2)C(=O)OC12CCN(C1C[C@@H]3CN(C(=O)c4c(C)ncnc4C)C[C@@H]3C1)CC2 (some centres undefined) |
| 34 nM | 4 nM | CCCC[C@H]1CN(C[C@H]2CC[C@H](OCC)CC2)C(=O)OC12CCN(C1C[C@@H]3CN(C(=O)c4c(C)ccnc4C)C[C@@H]3C1)CC2 (some centres undefined) |
| 27 nM | 12 nM | CCCC[C@H]1CN(C[C@H]2CC[C@H](OC3CC3)CC2)C(=O)OC12CCN(C1C[C@@H]3CN(C(=O)c4c(C)ncnc4C)C[C@@H]3C1)CC2 (some centres undefined) |
| 25 nM | ≥ 625 nM | CCCC[C@H]1CN(CC2CCOCC2)C(=O)OC12CCN(C1(C)C[C@H]3CN(C(=O)c4c(C)ncnc4C)C[C@H]3C1)CC2 (some centres undefined) |
| 23 nM | 12 nM | CCCC[C@H]1CN(C[C@H]2CC[C@H](OC(C)C)CC2)C(=O)OC12CCN(C1C[C@@H]3CN(C(=O)c4c(C)ncnc4C)C[C@@H]3C1)CC2 (some centres undefined) |
| 15 nM | 9 nM | CCCC[C@H]1CN(CC2CCOCC2)C(=O)OC12CCN(C1C[C@@H]3CN(C(=O)c4c(C)cc(C#N)nc4C)C[C@@H]3C1)CC2 (some centres undefined) |
| 14 nM | 262 nM | CCCC[C@H]1CN(CC2CCOCC2)C(=O)OC12CCN(C1C[C@@H]3CN(C(=O)c4c(C)ncnc4C)C[C@@H]3C1)CC2 (some centres undefined) |
| 4 nM | – | CCCC[C@H]1CN(CC2CCOCC2)C(=O)OC12CCN(C1(C)CCN(C(=O)c3c(C)ncnc3C)CC1)CC2 |
